pEC50, pIC50: −log10 of the molar value. Values belong to the compound of their own block, whether it stands above or below them.
Columns and labels:
[1] = Lipophilicity, log P of the compound; type: physicochemical; details: octanol/water
[2] = target: Human immunodeficiency virus type 1 reverse transcriptase (Human immunodeficiency virus 1) (UniProt Q72547); test: Inhibition of HIV1 3B reverse transcriptase infected in human PBMC cells after 4 days; type: cell-based
[3] = system: Human immunodeficiency virus 1; test: Antiviral activity against HIV1; type: functional, organism-based
[4] = system: Human immunodeficiency virus 1; test: Antiviral activity against HIV1 assessed as serum adjusted potency; type: functional, organism-based
[5] = target: T1, Human immunodeficiency virus type 1 reverse transcriptase (Human immunodeficiency virus 1, UniProt Q72547); test: Inhibition of HIV1 reverse transcriptase
[6] = system: Human immunodeficiency virus 1; test: Antiviral activity against HIV1 subtype B; type: functional, organism-based; details: Human immunodeficiency virus 1, subtype B
[7] = target: T1, Human immunodeficiency virus type 1 reverse transcriptase; test: Inhibition of wild type recombinant HIV1 reverse transcriptase using poly(rA)-oligo(dT) as template/primer
[8] = target: T1, Human immunodeficiency virus type 1 reverse transcriptase; test: Inhibition of HIV1 reverse transcriptase derived from HIV patient plasma by LC/MS/MS analysis
[9] = Half life in human serum at 100 mg, qd; type: ADME, cell-free
[10] = Half life in human serum at 200 mg, bid; type: ADME, cell-free
[11] = Half life in human serum at 25 mg, qd; type: ADME, cell-free
[12] = Half life in human serum at 600 mg, qd; type: ADME, cell-free
[13] = Cmax in rat; type: ADME; details: in vivo
[14] = Cmax in Beagle dog; type: ADME, Canis lupus familiaris; details: in vivo
[15] = Tmax in rat; type: ADME; details: in vivo
[16] = Half life in human serum at 400 mg, qd; type: ADME, cell-free
[17] = target: Human immunodeficiency virus type 1 reverse transcriptase (Human immunodeficiency virus 1) (UniProt Q72547)
[18] = Oral bioavailability in human; type: ADME, organism-based; details: in vivo

Structure (SMILES): Cc1ccnc2c1NC(=O)c1cccnc1N2
logP [1]: 1.52

Structure (SMILES): N#Cc1cc(Cl)cc(Oc2c(Br)ccc(CC(=O)Nc3ccc(S(N)(=O)=O)cc3Cl)c2F)c1 [DEPULFAVIRINE]
pEC50 [3]: 8.92 | pEC50 [4]: 7.86

Structure (SMILES): CC1O[C@](C#CC2CC2)(C(F)(F)F)c2cc(Cl)ccc2NC1=O (some centres undefined)
pIC50 [5]: 7.09

Structure (SMILES): NC(=O)c1[nH]c2ccccc2c1S(=O)(=O)c1ccccc1
pEC50 [6]: 3.74

Structure (SMILES): CCN1c2ncccc2C(=O)Nc2c(C)ccnc21
logP [1]: 2.09

Structure (SMILES): Cc1cc(/C=C/C#N)cc(F)c1Nc1ccc(F)c(Nc2ccc(C#N)cc2)n1
pEC50 [6]: 3.00

Structure (SMILES): Cc1cc(/C=C/C#N)cc(F)c1Nc1cccc(Nc2ccc(C#N)cc2)n1
pEC50 [6]: 2.26

Structure (SMILES): Cn1c(Cn2ccc(C(F)(F)F)c(Oc3cc(Cl)cc(C#N)c3)c2=O)n[nH]c1=O [DORAVIRINE]
half-life [9]: 11 to 15 h

Structure (SMILES): Cc1cc(C#N)cc(C)c1Oc1nc(Nc2ccc(C#N)cc2)nc(N)c1Br [ETRAVIRINE]
half-life [10]: 41 h

Structure (SMILES): Cc1cc(/C=C/C#N)cc(C)c1Nc1ccnc(Nc2ccc(C#N)cc2)n1 [RILPIVIRINE]
half-life [11]: 50 h

Structure (SMILES): O=C1Nc2ccc(Cl)cc2[C@@](C#CC2CC2)(C(F)(F)F)O1 [EFAVIRENZ]
half-life [12]: 40 to 55 h

Structure (SMILES): O=S1(c2ccccc2)=NC(=S)Nc2ccccc21 (centres undefined)
pIC50 [5]: 5.29 to 6.02

Structure (SMILES): O=C1Nc2cccnc2Nc2ncccc21
logP [1]: 1.03

Structure (SMILES): NC(=O)c1[nH]c2cccc(Cl)c2c1S(=O)(=O)c1ccccc1
pEC50 [6]: 6.00

Structure (SMILES): CCOC1(c2ccccc2)c2cc(Cl)ccc2NC(=S)N1C (centres undefined)
pIC50 [5]: 7.25

Structure (SMILES): Cc1cn([C@H]2C[C@H](N=[N+]=[N-])[C@@H](CO)O2)c(=O)[nH]c1=O
ED50 [2]: 0.07 µM

Structure (SMILES): O=C1Nc2ccc(Cc3ccccc3)cc2[C@@](C#CC2CC2)(C(F)(F)F)O1
IC90 [17]: 0.279 µM

Structure (SMILES): CC1O[C@](/C=C/C2CC2)(C(F)(F)F)c2cc(Cl)ccc2NC1=O (some centres undefined)
pIC50 [5]: 7.34

Structure (SMILES): Cc1ccnc2c1NC(=O)c1cccnc1N2C1CC1 [NEVIRAPINE]
bioavailability [18]: 95% | half-life [10]: 25 to 30 h | logP [1]: 2.05

The remaining lines, values ahead:

ED50 [2]: 2 µM | logP [1]: 3.3
Structure (SMILES): CCNc1cccnc1N1CCN(C(=O)c2cc(C)c(OC)c(C)c2)CC1

logP [1]: 1.65
Structure (SMILES): O=C1Nc2ccccc2Nc2ncccc21

ED50 [2]: 2 µM | pIC50 [7]: 4.70
Structure (SMILES): CCNc1cccnc1N1CCN(Cc2cc(C)c(OC)c(C)c2)CC1

pIC50 [8]: 5.22
Structure (SMILES): O=C1Nc2cccnc2Nc2ccccc21

logP [1]: 1.84
Structure (SMILES): CCN1c2ncccc2C(=O)N(C)c2cccnc21

Cmax [13]: 4.6 to 17.4 µM | Cmax [14]: 16 to 33 µM | Tmax [15]: 0.5 to 1 h | logP [1]: 1.28
Structure (SMILES): CCNc1cccnc1N1CCN(C(=O)c2cc3cc(OC)ccc3[nH]2)CC1.CS(=O)(=O)O [ATEVIRDINE SULPHATE]

half-life [16]: 2 to 11 h
Structure (SMILES): CC(C)Nc1cccnc1N1CCN(C(=O)c2cc3cc(NS(C)(=O)=O)ccc3[nH]2)CC1 [DELAVIRDINE]

ED50 [2]: 0.3 µM
Structure (SMILES): COc1ccc2[nH]c(C(=O)N3CCN(c4ncccc4NC(C)C)CC3)cc2c1

ED50 [2]: 0.3 µM
Structure (SMILES): CCNc1cccnc1N1CCN(C(=O)c2cc3ccccc3[nH]2)CC1

ED50 [2]: 0.3 µM
Structure (SMILES): CC(C)Nc1cccnc1N1CCN(C(=O)c2cc3cc(F)ccc3[nH]2)CC1

ED50 [2]: 0.3 µM
Structure (SMILES): CC(C)Nc1cccnc1N1CCN(C(=O)c2cc3ccccc3[nH]2)CC1

logP [1]: 2.46
Structure (SMILES): CCN1c2ccccc2N(C)C(=O)c2cccnc21
